Experimental data reported in patent publication US20240368158A1, “KINASE MODULATORS, COMPOSITIONS COMPRISING THE KINASE MODULATOR, AND METHODS OF USING THE SAME” (BIOFRONT LTD, priority 2021, published 2024).
pIC50: −log10 of the molar value.

Columns and labels:
[1] = target: T1, HPK1 (Homo sapiens, UniProt Q92918); test: HPK1 enzyme inhibition assay (ADP-Glo); assay type: biochemical; conditions: MBP substrate, ATP
T1 construct: purchased Signal Chem M23-11G-10
T1 sequence (Q92918 1-346 limits assumed): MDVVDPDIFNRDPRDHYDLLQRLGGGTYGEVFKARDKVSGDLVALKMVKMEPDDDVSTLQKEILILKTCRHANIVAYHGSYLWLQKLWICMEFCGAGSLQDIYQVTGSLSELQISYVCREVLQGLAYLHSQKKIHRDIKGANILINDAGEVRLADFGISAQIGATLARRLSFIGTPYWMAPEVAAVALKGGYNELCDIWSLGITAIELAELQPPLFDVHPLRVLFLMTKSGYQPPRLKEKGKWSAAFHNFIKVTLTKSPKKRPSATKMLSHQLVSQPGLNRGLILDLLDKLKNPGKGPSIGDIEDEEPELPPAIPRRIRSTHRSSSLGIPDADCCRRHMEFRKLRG
Protocol: The compound was dissolved in 100% DMSO at the concentration of 10 mM. The HPK1 protein was purchased from Signal Chem (M23-11G-10). 2.5 μL per well of 2×HPK1 protein was added to assay plate containing the test compound, centrifuged at 1500 rpm for 1 minute, and then incubated at 25° C. for 60 minutes. MBP protein was purchased from Signal Chem (M42-51N) and ATP was purchased from Promega (V9102). The two were added 2.5 μL per well mixture of 2×MBP (0.2 ug/ul) and ATP (20 μM), centrifuged at 1500 rpm for 1 minute, then incubated at 25° C. for 60 minutes. Then added 5 μL of ADP-Glo from Promega (V9102) to the assay plate and depleted the unconsumed ATP for 60 minutes. Then centrifuged at 1500 rpm for 1 minute and incubated at 25° C. for 60 minutes. Finally, 10 μL of the kinase assay reagent from Promega (V9102) was added to the assay plate to convert ADP to ATP, centrifuged at 1500 rpm for 1 minute, incubate at 25° C. for 40 minutes. After 40 minutes incubation, the […] was determined. Based on the results, the IC50 value of the compound was calculated.

[2] = system: HPK1 p-SLP-76 in Jurkat cells; test: HPK1 p-SLP-76 inhibition assay in Jurkat cells (HTRF); assay type: cell-based; conditions: Homo sapiens, 4 h compound, anti-CD3 stimulation 20 min
Protocol: Before compound treatment, Jurkat cells were starved in PRMI-1640 medium supplemented with 0.5% FBS overnight. The cell density was adjusted to 1*10^7 cells/mL in assay medium (RPMI-1640 no phenol red with 0.5% FBS) and 16 uL cell suspension was transferred per well to a 384-well plate (Corning #3765). […] of test compound was prepared in assay medium and 4 uL was added per well to the 384-well plate. The plate was then incubated at 37° C., 5% CO2 for 4 h. Jurkat cells in 384-well plate were stimulated with anti-CD3 (BD Biosciences #555329, final conc. is 10 ug/mL) for 20 min at 37° C., 5% CO2 by adding 4 uL 6× antibody solution per well. Phospho-SLP76 HTRF kit was purchased from Cisbio (63ADK076PEH). 8 uL 4× Lysis Buffer was added to 384-well plate after anti-CD3 stimulation. The plate was centrifuged at 1,000 rpm for 1 min, shaken at 250 rpm for 60 min and centrifuged again at 1,000 rpm for 5 min. Afterwards the cell lysates were transferred to the assay plate (Greiner #784075) with 16 uL per well. 4 uL detection antibody mix per well prepared in Detection Buffer was added to the assay plate, followed by centrifugation at 1,000 rpm for 1 min and incubation at 25° C. overnight. The fluorescence emission at two different wavelengths (665 nm and 620 nm) was read by an HTRF compatible microplate reader and the IC50 value of the compound was calculated.

Row | pIC50 [1] | pIC50 [2] | SMILES
1 | ≥ 8.00 | 5.00 to 5.52 | CCc1c[nH]c2ncc(-c3cccc(N4CCN(C(=O)CNc5ccc(C[C@@H](N)C(=O)O)cc5)CC4=O)c3)c(Cl)c12 [Example 46, (R)-2-amino-3-(4-((2-(4-(3-(4-chloro-3-ethyl-1H-pyrrolo[2,3-b]pyridin-5-yl)phenyl)-3-oxopiperazin-1-yl)-2-oxoethyl)amino)phenyl)propanoic acid]
2 | 7.00 to 8.00 | < 5.00 | CCc1c[nH]c2ncc(-c3cccc(N4CCN(C(=O)CC[C@H](NC(=O)c5ccc(NCc6cnc7nc(N)[nH]c(=O)c7n6)cc5)C(=O)O)CC4=O)c3)c(Cl)c12 [Example 47, (S)-2-(4-(((2-amino-4-oxo-3,4-dihydropteridin-6-yl)methyl)amino)benzamido)-5-(4-(3-(4-chloro-3-ethyl-1H-pyrrolo[2,3-b]pyridin-5-yl)phenyl)-3-oxopiperazin-1-yl)-5-oxopentanoic acid]
3 | ≥ 8.00 | < 5.00 | CCc1c[nH]c2ncc(-c3cccc(N4CCN(C(=O)CO[C@@H]5O[C@H](CO)[C@@H](O)[C@H](O)[C@H]5O)CC4=O)c3)c(Cl)c12 [Example 49, 1-(3-(4-chloro-3-ethyl-1H-pyrrolo[2,3-b]pyridin-5-yl)phenyl)-4-(2-(((2R,3R,4S,5S,6R)-3,4,5-trihydroxy-6-(hydroxymethyl)tetrahydro-2H-pyran-2-yl)oxy)acetyl)piperazin-2-one]
4 | ≥ 8.00 | 5.52 to 6.52 | CS(=O)(=O)N1CCN(c2cccc(-c3cnc4[nH]cc(CC(F)F)c4c3Cl)c2)C(=O)C1 [Example 51, 1-(3-(4-chloro-3-(2,2-difluoroethyl)-1H-pyrrolo[2,3-b]pyridin-5-yl)phenyl)-4-(methylsulfonyl)piperazin-2-one]
5 | ≥ 8.00 | 5.52 to 6.52 | CCc1c[nH]c2ncc(-c3cccc(N4CCN(S(C)(=O)=O)CC4=O)c3)c(Cl)c12 [Example 52, 1-(3-(4-chloro-3-ethyl-1H-pyrrolo[2,3-b]pyridin-5-yl)phenyl)-4-(methylsulfonyl) piperazin-2-one]
6 | ≥ 8.00 | 5.52 to 6.52 | COCCS(=O)(=O)N1CCN(c2cccc(-c3cnc4[nH]cc(C5CC5)c4c3Cl)c2)C(=O)C1 [Example 54, 1-(3-(4-chloro-3-cyclopropyl-1H-pyrrolo[2,3-b]pyridin-5-yl)phenyl)-4-((2-methoxyethyl)sulfonyl)piperazin-2-one]
7 | ≥ 8.00 | 5.52 to 6.52 | O=C1CN(S(=O)(=O)CCCN2CCOCC2)CCN1c1cccc(-c2cnc3[nH]cc(C4CC4)c3c2Cl)c1 [Example 55, 1-(3-(4-chloro-3-cyclopropyl-1H-pyrrolo[2,3-b]pyridin-5-yl)phenyl)-4-((3-morpholinopropyl)sulfonyl)piperazin-2-one]
8 | ≥ 8.00 | 5.52 to 6.52 | CN(C)CCCS(=O)(=O)N1CCN(c2cccc(-c3cnc4[nH]cc(C5CC5)c4c3Cl)c2)C(=O)C1 [Example 56, 1-(3-(4-chloro-3-cyclopropyl-1H-pyrrolo[2,3-b]pyridin-5-yl)phenyl)-4-((3-(dimethylamino)propyl)sulfonyl)piperazin-2-one]
9 | ≥ 8.00 | 5.52 to 6.52 | CC1CN(CCCS(=O)(=O)N2CCN(c3cccc(-c4cnc5[nH]cc(C6CC6)c5c4Cl)c3)C(=O)C2)C1 [Example 57, 1-(3-(4-chloro-3-cyclopropyl-1H-pyrrolo[2,3-b]pyridin-5-yl)phenyl)-4-((3-(3-methylazetidin-1-yl)propyl)sulfonyl)piperazin-2-one]
10 | ≥ 8.00 | 5.52 to 6.52 | O=C1CN(S(=O)(=O)CCCN2CC(F)C2)CCN1c1cccc(-c2cnc3[nH]cc(C4CC4)c3c2Cl)c1 [Example 58, 1-(3-(4-chloro-3-cyclopropyl-1H-pyrrolo[2,3-b]pyridin-5-yl)phenyl)-4-((3-(3-fluoroazetidin-1-yl)propyl)sulfonyl)piperazin-2-one]
11 | ≥ 8.00 | 5.52 to 6.52 | O=C1CN(S(=O)(=O)CCCN2CCOCC2)CCN1c1cccc(-c2cnc3[nH]cc(CC(F)F)c3c2Cl)c1 [Example 59, 1-(3-(4-chloro-3-(2,2-difluoroethyl)-1H-pyrrolo[2,3-b]pyridin-5-yl)phenyl)-4-((3-morpholinopropyl)sulfonyl)piperazin-2-one]
12 | ≥ 8.00 | 5.52 to 6.52 | CS(=O)(=O)N1CCN(c2cccc(-c3cnc4[nH]cc(CC(F)F)c4c3Cl)n2)C(=O)C1 [Example 61, 1-(6-(4-chloro-3-(2,2-difluoroethyl)-1H-pyrrolo[2,3-b]pyridin-5-yl)pyridin-2-yl)-4-(methylsulfonyl)piperazin-2-one]
13 | ≥ 8.00 | 5.52 to 6.52 | COCCS(=O)(=O)N1CCN(c2cccc(-c3cnc4[nH]cc(CC(F)F)c4c3Cl)c2)C(=O)C1 [Example 62, 1-(3-(4-chloro-3-(2,2-difluoroethyl)-1H-pyrrolo[2,3-b]pyridin-5-yl)phenyl)-4-((2-methoxyethyl)sulfonyl)piperazin-2-one]
